Laboratory results from US8143393B2, “Substituted 4-amino-pyrrolotriazine derivatives useful for treating hyper-proliferative disorders and diseases associated with angiogenesis” (Bayer HealthCare LLC, priority 2005, dated 2012).

Biological target: T1, FGFR-1 (Homo sapiens, UniProt P11362)
T1 construct: GST; made in house
Experiment: FGFR-1 TR-FRET biochemical assay
Conditions: 0.6 uM ATP, 5 nM FGFR1-GST; bounds given in nM
Outline: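 In this LANCE time-resolved FRET format, compounds at final 10 μM–0.128 nM (1% DMSO, 1:5 series) were preincubated before enzyme start. Reactions ran for one hour at room temperature with 0.6 uM ATP, 25 nM biotinylated poly GT and 5 nM GST-tagged FGFR1. Inhibition was calculated from the 665/615 nm ratio minus the ATP-free background.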

T1 sequence (P11362 22-822): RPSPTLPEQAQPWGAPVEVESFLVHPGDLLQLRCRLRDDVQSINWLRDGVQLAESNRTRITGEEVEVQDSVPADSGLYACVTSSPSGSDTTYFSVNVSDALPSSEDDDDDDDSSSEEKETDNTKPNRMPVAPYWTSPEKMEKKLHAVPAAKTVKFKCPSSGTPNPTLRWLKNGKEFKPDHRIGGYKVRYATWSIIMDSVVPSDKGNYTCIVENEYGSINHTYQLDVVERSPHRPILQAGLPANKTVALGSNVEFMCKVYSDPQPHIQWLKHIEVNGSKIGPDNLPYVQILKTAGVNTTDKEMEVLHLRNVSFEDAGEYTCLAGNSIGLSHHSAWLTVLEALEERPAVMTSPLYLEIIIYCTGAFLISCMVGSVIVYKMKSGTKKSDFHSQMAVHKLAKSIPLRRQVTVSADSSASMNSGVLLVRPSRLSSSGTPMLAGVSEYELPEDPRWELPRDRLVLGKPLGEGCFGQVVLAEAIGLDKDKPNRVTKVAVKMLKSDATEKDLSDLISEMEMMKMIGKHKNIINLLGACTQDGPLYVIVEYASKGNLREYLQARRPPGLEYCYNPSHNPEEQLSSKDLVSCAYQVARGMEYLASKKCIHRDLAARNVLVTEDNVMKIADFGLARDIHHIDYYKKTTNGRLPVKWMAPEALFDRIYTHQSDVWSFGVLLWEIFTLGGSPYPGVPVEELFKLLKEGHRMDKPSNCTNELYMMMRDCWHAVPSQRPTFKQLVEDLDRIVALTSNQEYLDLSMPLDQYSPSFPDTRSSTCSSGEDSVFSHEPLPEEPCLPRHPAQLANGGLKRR

| Structure (SMILES) | IC50 |
| --- | --- |
| Nc1ncnn2c(C3CCN(C(=O)CN4CCOCC4)CC3)cc(-c3ccc(NC(=O)Nc4cc(C(F)(F)F)ccc4F)c(Cl)c3)c12 [Example 231, N-(4-{4-amino-7-[1-(morpholin-4-ylacetyl)piperidin-4-yl]pyrrolo[2,1-f][1,2,4]triazin-3-yl}-2-chlorophenyl)-N′-[2-fluoro-5-(trifluoromethyl)phenyl]urea] | 10 to 100 nM |
| Nc1ncnn2c(CCN3CCOCC3)cc(-c3cc(F)c(NC(=O)Nc4cc(C(F)(F)F)ccc4F)cc3F)c12 [Example 211, N-{4-[4-amino-7-(2-morpholin-4-ylethyl)pyrrolo[2,1-f][1,2,4]triazin-5-yl]-2,5-difluorophenyl}-N′-[2-fluoro-5-(trifluoromethyl)phenyl]urea] | 10 to 100 nM |
| CC(C)(O)c1cc(-c2ccc(NC(=O)Nc3cc(C(F)(F)F)ccc3F)cc2)c2c(N)ncnn12 [Example 104, N-{4-[4-amino-7-(1-hydroxy-1-methylethyl)pyrrolo[2,1-f][1,2,4]triazin-5-yl]phenyl}-N′-[2-fluoro-5-(trifluoromethyl)phenyl]urea] | 10 to 100 nM |
| Nc1ncnn2c(C(O)C(O)CO)cc(-c3ccc(NC(=O)Nc4cc(C(F)(F)F)ccc4F)c(F)c3)c12 (centres unmarked) [Example 255, N-{4-[4-amino-7-(1,2,3-trihydroxypropyl)pyrrolo[2,1-f][1,2,4]triazin-5-yl]-2-flourophenyl}-N′-[2-fluoro-5-(trifluoromethyl)phenyl]urea] | 10 to 100 nM |
| Nc1ncnn2c(C(=O)CN3CCOCC3)cc(-c3ccc(NC(=O)Nc4cc(C(F)(F)F)ccc4F)cc3)c12 [Example 103, N-{4-[4-amino-7-(morpholin-4-ylacetyl)pyrrolo[2,1-f][1,2,4]triazin-5-yl]phenyl}-N′-[2-fluoro-5-(trifluoromethyl)-phenyl]urea] | 10 to 100 nM |

The next lines start with the values.

| IC50 | Structure (SMILES) |
| --- | --- |
| 10 to 100 nM | Nc1ncnn2c(C(=O)C3CNCCO3)cc(-c3ccc(NC(=O)Nc4cc(C(F)(F)F)ccc4F)c(F)c3)c12 (centres unmarked) [Example 289, N-{4-[4-amino-7-(morpholin-2-ylcarbonyl)pyrrolo[2,1-f][1,2,4]triazin-5-yl]-2-fluorophenyl}-N′-[2-fluoro-5-(trifluoromethyl)phenyl]urea] |
| 10 to 100 nM | CC(=O)c1cccc(NC(=O)Nc2ccc(-c3cc(CN4CCOCC4)n4ncnc(N)c34)cc2)c1 [Example 59, N-(3-acetylphenyl)-N′-{4-[4-amino-7-(morpholin-4-ylmethyl)pyrrolo[2,1-f][1,2,4]triazin-5-yl]phenyl}urea] |
| < 10 nM | CNC(=O)CN1CCC(c2cc(-c3ccc(NC(=O)Nc4cc(C(F)(F)F)ccc4F)c(F)c3)c3c(N)ncnn23)CC1 [Example 120, 2-[4-(4-amino-5-3-fluoro-4-[([2-fluoro-5-(trifluoromethyl)phenyl]aminocarbonyl)amino]phenylpyrrolo[2,1-f][1,2,4]triazin-7-yl)piperidin-1-yl]-N-methylacetamide] |
| 10 to 100 nM | COC[C@@H]1CCCN1CCc1cc(-c2ccc(NC(=O)Nc3cc(C(F)(F)F)ccc3F)c(F)c2)c2c(N)ncnn12 [Example 215, N-[4-(4-amino-7-{2-[2-(methoxymethyl)pyrrolidin-1-yl]ethyl}pyrrolo-[2,1-f][1,2,4]triazin-5-yl)-2-fluorophenyl]-N′-[2-fluoro-5-(trifluoromethyl)phenyl]urea] |
| < 10 nM | Nc1ncnn2c(CCCN3CCCC3)cc(-c3ccc(NC(=O)Nc4cc(C(F)(F)F)ccc4F)c(F)c3)c12 [Example 186, N-{4-[4-amino-7-(3-pyrrolidin-1-ylpropyl)pyrrolo[2,1-f][1,2,4]triazin-5-yl]-2-fluorophenyl}-N′-[2-fluoro-5-(trifluoromethyl)phenyl]urea] |
| < 10 nM | CN(C)CC(=O)N1CCC(c2cc(-c3ccc(NC(=O)Nc4cc(C(F)(F)F)ccc4F)c(Cl)c3)c3c(N)ncnn23)CC1 [Example 240, N-(4-{4-amino-7-[1-(N,N-dimethylglycyl)piperidin-4-yl]pyrrolo[2,1-f][1,2,4]triazin-5-yl}-2-chlorophenyl)-N′-[2-fluoro-5-(trifluoromethyl)phenyl]urea] |
